Laboratory results published in patent US11596644B2, “Method for treating post-prandial hypoglycemia” (AVOLYNT, priority 2018, dated 2023).

Assays:
[1] = tested on: STZ-induced diabetic rats; assay: Oral mixed-carbohydrate tolerance test (OMCTT) in STZ-induced diabetic rats (Example 9); type: in vivo, rat; conditions: for Plasma glucose 0 hr: before dosing; for Plasma glucose 0 hr / Plasma glucose 0.5 hr / Plasma glucose 1 hr / Plasma glucose 2 hr / Plasma glucose 3 hr / ΔAUC (0-1) / ΔAUC (0-1) (% of Control): mixed-carbohydrate load, mean ± S.E.M.
Description: Study in diabetic rats with mixed carbohydrates. Diabetic rats, induced by intravenous injection of streptozotocin (STZ; 40 mg/kg), were used to determining plasma glucose concentration (PG) 1 hr after oral mixed-carbohydrate tolerance test (OMCTT). […] Blood was collected via the caudal artery immediately before dosing and 0.5, 1, 2, and 3 hr after dosing. The glucose concentration measurement in plasma used Glucose CII-Test Wako kit (Wako Pure Chemicals Industries, Ltd., Osaka, Japan). The variables used for efficacy assessment were the measurement values of the plasma glucose concentration and the area under the curve for plasma glucose concentration through 1 hr after loading (ΔAUC0-1 hr). The ΔAUC0-1 hr for plasma glucose was calculated based on the trapezoid method using the change of plasma glucose concentrations from pre-value (0 hr).

human SGLT1 = target: T1, human SGLT1 (Homo sapiens, UniProt P13866); assay: Inhibition of radiolabeled α-MG uptake into COS-7 cells transfected with human SGLT1 (Dixon plot); type: cell-based
T1 construct: expressed in transfected cells; host or cells: COS-7
T1 sequence (P13866 1-664): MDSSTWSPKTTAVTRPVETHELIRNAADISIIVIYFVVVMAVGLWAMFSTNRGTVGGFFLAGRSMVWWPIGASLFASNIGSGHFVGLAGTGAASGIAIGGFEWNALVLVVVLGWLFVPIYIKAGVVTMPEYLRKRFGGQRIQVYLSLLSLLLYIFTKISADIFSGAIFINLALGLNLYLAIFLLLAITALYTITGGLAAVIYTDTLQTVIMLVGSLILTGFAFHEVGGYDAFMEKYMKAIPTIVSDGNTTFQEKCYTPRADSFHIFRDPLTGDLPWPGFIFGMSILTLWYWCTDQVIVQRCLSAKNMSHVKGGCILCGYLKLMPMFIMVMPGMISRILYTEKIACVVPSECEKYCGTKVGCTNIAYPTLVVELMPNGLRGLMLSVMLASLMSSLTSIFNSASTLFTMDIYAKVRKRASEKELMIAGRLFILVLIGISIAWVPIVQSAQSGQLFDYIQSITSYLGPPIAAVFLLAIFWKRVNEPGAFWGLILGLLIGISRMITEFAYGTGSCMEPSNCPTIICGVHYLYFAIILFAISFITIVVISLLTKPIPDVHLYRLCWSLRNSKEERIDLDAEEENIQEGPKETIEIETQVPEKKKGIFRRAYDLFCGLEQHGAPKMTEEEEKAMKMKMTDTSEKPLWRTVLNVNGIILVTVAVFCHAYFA
Description: Selective inhibition study. Inhibition constants (Ki) of mizagliflozin for rat and human SGLT1 and SGLT2 were determined measuring concentration-dependent effects of test compound on uptake of radiolabeled methyl-α-D-glucopyranoside (α-MG) into COS-7 cells transiently transfected with cloned SGLT1 or SGLT2. Mizagliflozin was assessed at concentrations from 1 to 30 μM and 3 to 100 μM for human and rat SGLT2, respectively. It was assessed at concentrations from 30 nM to 1 μM and 10 to 30 nM for human and rat SGLT1, respectively. α-MG test concentrations were 0.3 and 1 mM. Data were analyzed and Ki determined using Dixon plots of initial transport rates. […] Inhibition constants were also determined for human SGLT1 and SGLT2.

[2] = tested on: healthy adult male volunteers; assay: Repeat dose study in humans, pharmacodynamic parameters after meals; type: in vivo, human; conditions: repeat dosing; for AUC 0-5 GIP / AUC 0-5 GLP-1 (active) / AUC 0-5 Insulin / AUC 0-5 glucose / GIP (peak) / GLP-1 (active) (peak) / Glucose (peak) / Insulin (peak) / Time (h) to peak, GIP / Time (h) to peak, GLP-1 (active) / Time (h) to peak, glucose / Time (h) to peak, insulin: Day 3 after breakfast
Description: Repeat dose study in humans. Oral doses of 2 mg, 5 mg, 10 mg, 20 mg, of mizagliflozin, placebo or miglitol 50 mg per dose three times daily to healthy adult male volunteers by a randomized, placebo-controlled, parallel-group, double-blind comparison method. The dose was orally administered with approximately 150 mL of water once daily immediately before breakfast on Days 1 and 13, and three times daily immediately before every meal on Days 3 to 12.
Changes in the following parameters and ΔAUC from 0 to t* hours after breakfast, lunch, and evening meal were measured: Blood glucose level, Serum insulin concentration, Blood active GLP-1 concentration, and Blood total GIP concentration, where t=0.5, 1, 1.5, 2, and 3 (t=0.5, 1, 1.5, 2, 3, and 5 only after breakfast).
In the miglitol group, hyperglycemia was suppressed after breakfast, lunch, and evening meal, as compared to the placebo group. […] These pharmacodynamic effects more or less persisted during 10-day repeated administration. There was no correlation between plasma mizagliflozin concentration and the pharmacodynamic effects. Measurements in Tables 5-8 were performed on Day 3 after breakfast.

Cc1cc(OCCCNCC(C)(C)C(N)=O)ccc1Cc1c(O[C@@H]2O[C@H](CO)[C@@H](O)[C@H](O)[C@H]2O)n[nH]c1C(C)C [mizagliflozin, 3-(3-{4-[3-(β-D-glucopyranosyloxy)-5-isopropyl-1H-pyrazol-4-ylmethyl-]-3-methylphenoxy}propylamino)-2,2-dimethylpropionamide]
Plasma glucose 0 hr ([1]; 0.03 mg/kg oral): 120 ± 9 mg/dL | Plasma glucose 0.5 hr ([1]; 0.03 mg/kg oral): 289 ± 43 mg/dL | Plasma glucose 1 hr ([1]; 0.03 mg/kg oral): 245 ± 28 mg/dL | Plasma glucose 2 hr ([1]; 0.03 mg/kg oral): 129 ± 4 mg/dL | Plasma glucose 3 hr ([1]; 0.03 mg/kg oral): 106 ± 4 mg/dL | ΔAUC (0-1) ([1]; 0.03 mg/kg oral): 116 ± 25 mg·h/dL | ΔAUC (0-1) (% of Control) ([1]; 0.03 mg/kg oral): 71 ± 15 % of Control | Plasma glucose 0 hr ([1]; 0.1 mg/kg oral): 128 ± 13 mg/dL | Plasma glucose 0.5 hr ([1]; 0.1 mg/kg oral): 261 ± 44 mg/dL | Plasma glucose 1 hr ([1]; 0.1 mg/kg oral): 234 ± 37 mg/dL | Plasma glucose 2 hr ([1]; 0.1 mg/kg oral): 136 ± 16 mg/dL | Plasma glucose 3 hr ([1]; 0.1 mg/kg oral): 98 ± 8 mg/dL | ΔAUC (0-1) ([1]; 0.1 mg/kg oral): 93 ± 20 mg·h/dL | ΔAUC (0-1) (% of Control) ([1]; 0.1 mg/kg oral): 57 ± 12 % of Control | PG elevation after glucose administration ([1]; 0.03 and 0.1 mg/kg oral, OMCTT): inhibited PG elevation after glucose administration dose dependently | mode of inhibition of SGLT1 (Dixon plot intersection pattern) (human SGLT1; human SGLT1): competitive with substrate | Ki (human SGLT1; α-MG 0.3 and 1 mM, COS-7 cells, read-out: inhibition constant for human SGLT1): 27 nM | AUC 0-5 GIP ([2]; 2 mg per dose): 1096.21 pg·h/mL | AUC 0-5 GLP-1 (active) ([2]; 2 mg per dose): 21.21 pmol·h/L | AUC 0-5 Insulin ([2]; 2 mg per dose): 166.61 uU*h/ml | AUC 0-5 glucose ([2]; 2 mg per dose): 550.6 mg·h/dL | GIP (peak) ([2]; 2 mg per dose): 285 pg/mL | GLP-1 (active) (peak) ([2]; 2 mg per dose): 5.98 pmol/L | Glucose (peak) ([2]; 2 mg per dose): 131.6 mg/dL | Insulin (peak) ([2]; 2 mg per dose): 58.05 uU/ml | Time (h) to peak, GIP ([2]; 2 mg per dose): 3 h | Time (h) to peak, GLP-1 (active) ([2]; 2 mg per dose): 0.5 h | Time (h) to peak, glucose ([2]; 2 mg per dose): 1 h | Time (h) to peak, insulin ([2]; 2 mg per dose): 1.5 h | AUC 0-5 GIP ([2]; 5 mg per dose): 1057.89 pg·h/mL | AUC 0-5 GLP-1 (active) ([2]; 5 mg per dose): 22.36 pmol·h/L | AUC 0-5 Insulin ([2]; 5 mg per dose): 146.08 uU*h/ml | AUC 0-5 glucose ([2]; 5 mg per dose): 524.6 mg·h/dL | GIP (peak) ([2]; 5 mg per dose): 280.88 pg/mL | GLP-1 (active) (peak) ([2]; 5 mg per dose): 5.95 pmol/L | Glucose (peak) ([2]; 5 mg per dose): 118.6 mg/dL | Insulin (peak) ([2]; 5 mg per dose): 44 uU/ml | Time (h) to peak, GIP ([2]; 5 mg per dose): 3 h | Time (h) to peak, GLP-1 (active) ([2]; 5 mg per dose): 0.5 h | Time (h) to peak, glucose ([2]; 5 mg per dose): 1.5 h | Time (h) to peak, insulin ([2]; 5 mg per dose): 2 h | AUC 0-5 GIP ([2]; 10 mg per dose): 839.7 pg·h/mL | AUC 0-5 GLP-1 (active) ([2]; 10 mg per dose): 41.12 pmol·h/L | AUC 0-5 Insulin ([2]; 10 mg per dose): 176.7 uU*h/ml | AUC 0-5 glucose ([2]; 10 mg per dose): 541.3 mg·h/dL | GIP (peak) ([2]; 10 mg per dose): 240.75 pg/mL | GLP-1 (active) (peak) ([2]; 10 mg per dose): 10.01 pmol/L | Glucose (peak) ([2]; 10 mg per dose): 121.3 mg/dL | Insulin (peak) ([2]; 10 mg per dose): 55.13 uU/ml | Time (h) to peak, GIP ([2]; 10 mg per dose): 3 h | Time (h) to peak, GLP-1 (active) ([2]; 10 mg per dose): 0.5 h | Time (h) to peak, glucose ([2]; 10 mg per dose): 1.5 h | Time (h) to peak, insulin ([2]; 10 mg per dose): 1 h | AUC 0-5 GIP ([2]; 20 mg per dose): 755.01 pg·h/mL | AUC 0-5 GLP-1 (active) ([2]; 20 mg per dose): 24.74 pmol·h/L | AUC 0-5 Insulin ([2]; 20 mg per dose): 142.25 uU*h/ml | AUC 0-5 glucose ([2]; 20 mg per dose): 522.4 mg·h/dL | GIP (peak) ([2]; 20 mg per dose): 217.15 pg/mL | GLP-1 (active) (peak) ([2]; 20 mg per dose): 6.01 pmol/L | Glucose (peak) ([2]; 20 mg per dose): 121 mg/dL | Insulin (peak) ([2]; 20 mg per dose): 47.69 uU/ml | Time (h) to peak, GIP ([2]; 20 mg per dose): 3 h | Time (h) to peak, GLP-1 (active) ([2]; 20 mg per dose): 0.5 h | Time (h) to peak, glucose ([2]; 20 mg per dose): 1.5 h | Time (h) to peak, insulin ([2]; 20 mg per dose): 1.5 h | active GLP-1 concentration ([2]; healthy adult male volunteers): a tendency toward increase in active GLP-1 concentration was seen | hyperglycemia after breakfast, lunch, and evening meal ([2]; healthy adult male volunteers): suppressed after breakfast, lunch, and evening meal on a level equivalent to the miglitol group | insulin secretion ([2]; healthy adult male volunteers): inhibition of insulin secretion along with inhibition of hyperglycemia was seen the same as in the miglitol group | total GIP concentration ([2]; healthy adult male volunteers): increase in total GIP concentration was seen on a level equivalent to the miglitol group | total GLP-1 concentration ([2]; healthy adult male volunteers): increase in total GLP-1 concentration was seen on a level equivalent to the miglitol group
